# According to patent US9695155B2, “Herbicidal substituted pyrimidinyloxy benzene compounds” (E. I. DU PONT DE NEMOURS AND COMPANY, priority 2013, dated 2017):
# What was measured:
# barnyardgrass = assay: Test A preemergence; type: in vivo, Echinochloa crus-galli; settings: for Plant response rating, Barnyardgrass: 125 g ai/ha, 0 to 100 scale where 0 is no effect and 100 is complete control; for Barnyardgrass plant response rating: 500 g ai/ha, 0 to 100 scale, 0 no effect, 100 complete control, approx. 10 days
# Procedure, shortened: (§1)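 Compounds in non-phytotoxic solvent with surfactant applied as soil spray preemergence, or postemergence to plants 2-10 cm at one- to two-leaf stage, in loam/sand. After approximately 10 days in greenhouse, injury rated visually versus untreated controls, 0 (no effect) to 100 (complete control).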
# velvetleaf = assay: Test A postemergence; type: in vivo, Abutilon theophrasti; settings: 500 g ai/ha, 0 to 100 scale where 0 is no effect and 100 is complete control
# Procedure, shortened: as §1
# rice = assay: Test B flooded paddy test; type: in vivo, Oryza sativa; settings: Flood, 250 g ai/ha; 0 to 100 scale where 0 is no effect and 100 is complete control
# Procedure, shortened: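 Scores from 0 (no effect) to 100 (complete control) are visual comparisons with controls, taken 13 to 15 days after compound was applied into floodwater 3 cm deep around 2-leaf plants.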
# galium = assay: Test C preemergence; type: in vivo, Galium aparine; settings: for Galium plant response rating: preemergence; for Plant response rating, Galium: Preemergence, 31 g ai/ha, scale 0 to 100, 0 no effect, 100 complete control
# Procedure, shortened: (§2)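 Injury was assessed visually against controls 13 to 15 days after application, with 0 meaning no effect and 100 full control; missing entries are shown as a dash. Preemergence sprays hit seeded loam–sand soil, postemergence sprays hit 1- to 4-leaf plants.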
# corn = assay: Test C preemergence; type: in vivo, Zea mays; settings: for Corn plant response rating: preemergence; for Plant response rating, Corn: Preemergence, 31 g ai/ha, scale 0 to 100, 0 no effect, 100 complete control
# Procedure, shortened: as §2
# morningglory [1] = assay: Test C preemergence; type: in vivo, Ipomoea coccinea; settings: for Morningglory plant response rating: preemergence; for Plant response rating, Morningglory: Preemergence, 31 g ai/ha, scale 0 to 100, 0 no effect, 100 complete control
# Procedure, shortened: as §2
# yellow nutsedge = assay: Test C preemergence; type: in vivo, Cyperus esculentus; settings: for Nutsedge, Yellow plant response rating: preemergence; for Plant response rating, Nutsedge, Yellow: Preemergence, 31 g ai/ha, scale 0 to 100, 0 no effect, 100 complete control
# Procedure, shortened: as §2
# oilseed rape = assay: Test C preemergence; type: in vivo, Brassica napus; settings: for Oilseed Rape plant response rating: preemergence; for Plant response rating, Oilseed Rape: Preemergence, 31 g ai/ha, scale 0 to 100, 0 no effect, 100 complete control
# Procedure, shortened: as §2
# blackgrass = assay: Test C postemergence; type: in vivo, Alopecurus myosuroides; settings: for Plant response rating, Blackgrass: Postemergence
# Procedure, shortened: as §2
# morningglory [2] = assay: Test C postemergence; type: in vivo, Ipomoea coccinea; settings: for Plant response rating, Morningglory: Postemergence, scale 0 to 100 (0 no effect, 100 complete control)
# Procedure, shortened: as §2
# kochia = assay: Test C postemergence; type: in vivo, Kochia scoparia; settings: for Plant response rating, Kochia: Postemergence
# Procedure, shortened: as §2
# wild oat = assay: Test C postemergence; type: in vivo, Avena fatua; settings: for Plant response rating, Oat, Wild: Postemergence, scale 0 to 100 (0 no effect, 100 complete control)
# Procedure, shortened: as §2
# [3] = 16 g ai/ha, scale 0 to 100 (0 no effect, 100 complete control)
# [4] = 62 g ai/ha, scale 0 (no effect) to 100 (complete control)
# [5] = 125 g ai/ha, scale 0 (no effect) to 100 (complete control)
# [6] = 16 g ai/ha, postemergence, visual rating, scale 0 to 100 (0 no effect, 100 complete control), 13 to 15 days
# [7] = 31 g ai/ha, scale 0 to 100 (0 no effect, 100 complete control), 13 to 15 days
# [8] = 62 g ai/ha, scale 0 to 100 (0 no effect, 100 complete control)
Compound,"Plant response rating, Barnyardgrass (barnyardgrass)",Barnyardgrass plant response rating (barnyardgrass),"Plant response rating, Rice (rice)",Galium plant response rating (galium; [3]),Galium plant response rating (galium; [4]),Galium plant response rating (galium; [5]),"Plant response rating, Galium (galium)",Corn plant response rating (corn; [3]),Corn plant response rating (corn; [4]),Corn plant response rating (corn; [5]),"Plant response rating, Corn (corn)",Morningglory plant response rating (morningglory [1]; [3]),Morningglory plant response rating (morningglory [1]; [4]),Morningglory plant response rating (morningglory [1]; [5]),"Plant response rating, Morningglory (morningglory [1])","Nutsedge, Yellow plant response rating (yellow nutsedge; [3])","Nutsedge, Yellow plant response rating (yellow nutsedge; [4])","Nutsedge, Yellow plant response rating (yellow nutsedge; [5])","Plant response rating, Nutsedge, Yellow (yellow nutsedge)",Oilseed Rape plant response rating (oilseed rape; [3]),also measured
Fc1cnc(Oc2cccc(C(F)F)c2-n2cc(Br)cn2)nc1 [Compound 112],70,100,0,55,100,95,98,0,5,20,0,5,65,75,15,0,15,40,5,65,"Plant response rating, Velvetleaf (velvetleaf): 100; Oilseed Rape plant response rating (oilseed rape; [4]): 95; Oilseed Rape plant response rating (oilseed rape; [5]): 100; Plant response rating, Oilseed Rape (oilseed rape): 90"
CCOc1cn(-c2c(Br)cccc2Oc2ncc(Cl)cn2)nn1 [Compound 84],50,90,0,80,100,100,90,0,0,5,0,0,25,100,10,0,5,40,0,50,"Oilseed Rape plant response rating (oilseed rape; [4]): 100; Oilseed Rape plant response rating (oilseed rape; [5]): 100; Plant response rating, Oilseed Rape (oilseed rape): 85; Blackgrass plant response rating (blackgrass; [6]): 5; Plant response rating (0 to 100), Blackgrass (blackgrass; 125 g ai/ha, postemergence): 20; Plant response rating, Blackgrass (blackgrass; [7]): 5; Plant response rating, Blackgrass (blackgrass; [8]): 5; Plant response rating (0 to 100), Morningglory (morningglory [2]; 125 g ai/ha, postemergence): 85; Plant response rating, Morningglory (morningglory [2]; 31 g ai/ha, 13 to 15 days): 70; Plant response rating, Morningglory (morningglory [2]; 62 g ai/ha): 85; Kochia plant response rating (kochia; [6]): 55; Plant response rating (0 to 100), Kochia (kochia; 125 g ai/ha, postemergence): 80; Plant response rating, Kochia (kochia; [7]): 55; Plant response rating, Kochia (kochia; [8]): 70; Plant response rating (0 to 100), Oat, Wild (wild oat; 125 g ai/ha, postemergence): 15; Plant response rating, Oat, Wild (wild oat; 31 g ai/ha, 13 to 15 days): 0; Plant response rating, Oat, Wild (wild oat; 62 g ai/ha): 5"
